Data from patent publication US20140220110A1, “REMOTE LOADING OF SPARINGLY WATER-SOLUBLE DRUGS INTO LIPOSOMES” (ZONEONE PHARMA, INC., priority 2013, published 2014).
Converted amounts (≈) assume the structure as drawn. Values belong to the compound of their own block, whether it stands above or below them.

Key:
[1] = Remote loading of doxorubicin and 17-DMAG into ammonium sulfate liposomes with and without 25% DMSO; format: physicochemical; settings: ammonium sulfate containing liposomes
Description: To test the integrity of the liposomes in 25% DMSO we attempted to remote load the water-soluble weak base drugs doxorubicin and 17-dimethylaminoethylamino-17-demethoxygeldanamycin (17-DMAG) and compared to the same loading without DMSO.

[2] = Remote loading of aripiprazole precipitate into liposomes; format: physicochemical
Protocol: Liposomes (HSPC/Chol/PEG-DSPE 3/2/0.15 mol/mol/mol) containing 250 mM ammonium sulfate or 250 mM sodium sulfate were diluted in 1 mL of 50 mM citric acid, 10% (wt/wt) sucrose, pH 4.0 to a concentration of 6 mM phospholipid. […] Fine precipitates were immediately observed after the drug was added to both liposome samples. The samples were heated at 65° C. for 30 min, the cooled on ice. The samples were filtered through a 0.2 um polyethersulfone syringe filter to remove any drug precipitates, followed by purification on a Sephadex G25 column equilibrated with HBS, pH 6.5 to remove any soluble extraliposome drug. The turbid fraction was collected and analyzed for lipid and drug as described above.

[3] = Water solubility; format: physicochemical
[4] = cited from earlier work

Structure (SMILES): CO[C@H]1/C=C\C=C(/C)C(=O)NC2=CC(=O)C(NCCN(C)C)=C(C[C@@H](C)C[C@H](OC)[C@H](O)[C@@H](C)/C=C(\C)[C@@H]1OC(N)=O)C2=O [Formulation 17-DMAG, 17-dimethylaminoethylamino-17-demethoxygeldanamycin]
- % Efficiency compared to control of no DMSO [1]: 73.1 ± 1.4%

- Output D/L ([2]; (NH4)2SO4 liposomes, input D/L 50 ug/umol): 42.28 ± 0.49 µg/µmol
- Output D/L ([2]; (Na)2SO4 liposomes, input D/L 50 ug/umol): 0.86 ± 0.51 µg/µmol
- loading efficiency ([2]; drug introduced as SBCD complex (from Abilify), same concentration and loading conditions): 68%
- Fold Increase NH4SO4/NaSO4 ([2]; input D/L 50 ug/umol): 49.3
- solubility in water [3]: very insoluble in water
Structure (SMILES): O=C1CCc2ccc(OCCCCN3CCN(c4cccc(Cl)c4Cl)CC3)cc2N1 [aripiprazole]

Structure (SMILES): O=C(O)c1ccc(-n2nc(-c3ccccc3O)nc2-c2ccccc2O)cc1 [deferasirox]
- water solubility [4]: ~38 µg/mL (≈ 102 µM)

- % Efficiency compared to control of no DMSO [1]: 92.7 ± 0.43%
Structure (SMILES): COc1cccc2c1C(=O)c1c(O)c3c(c(O)c1C2=O)C[C@@](O)(C(=O)CO)C[C@@H]3O[C@H]1C[C@H](N)[C@H](O)[C@H](C)O1 [doxorubicin]
